The values that follow come from ChEMBL document CHEMBL1201862, “PubChem BioAssay data set” (2004).

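48-hour exposure; five concentrations; linearly interpolated endpoints. GI50 marks 50% less growth.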 Activity calls are given as the source filed them. Cut-off read from the data, not from the text of the source: active = GI50 up to about 1.1 µM and inactive = higher.

Holding throughout (test): growth of human tumour cells (NCI), 48 h
The subject of assay [1] is ACHN.
In assay [2] the test system is UO-31.
Assay [3] relates to SF-295.
The test system of assay [4] is NCI-H522.
The subject of assay [5] is LOX IMVI.
The test system of assay [6] is SN12C.
The test system of assay [7] is COLO 205.
Assay [8] relates to SF-268.
In assay [9] the test system is SK-OV-3.
In assay [10] the test system is SW-620.
Assay [11] concerns K562.
Assay [12] has as its system CCRF-CEM.
Assay [13] relates to DMS-114.
Assay [14] concerns OVCAR-3.
For assay [15], the system named is OVCAR-5.
In assay [16] the test system is CAKI-1.

For `COc1cc(O)c2c(c1)C(=O)C1=C(C2=O)C(O)C[C@@](C)(O)C1` (stereo partly specified), the GI50 in assay [1] was 0.684 µM (active); in assay [2] it was 2.67 µM (inactive); in assay [3] it was 2.58 µM (inactive); in assay [4] it was 0.71 µM (active); in assay [5], 0.424 µM (active); in [6] it was 1.29 µM (inactive). For the same compound, the GI50 in assay [7] was 0.264 µM (active); in [8] it was 2.01 µM (inactive); in [9], 5.9 µM (inactive); in assay [10] it was 0.441 µM (active); in assay [11], 0.457 µM (active); in assay [12], 2.39 µM (inactive). For the same compound, the GI50 was 1.5 µM (inactive) in assay [13], 0.822 µM (active) in assay [14], 9.95 µM (inactive) in [15] and 1.87 µM (inactive) in assay [16].
In the case of `Cc1c2n(c(=O)[nH]c1=O)C1OC(CO)C(O2)C1O` (stereo unspecified), the GI50 in assay [1], in assay [2], in assay [3], in assay [4], in [5] and in assay [6] was > 100 µM (inactive) each time. For the same compound, the GI50 in [7], in assay [8], in [9], in assay [10], in assay [11] and in assay [12] was > 100 µM (inactive) in each case. Moreover, the GI50 in assay [13], in [14] and in assay [16] was > 100 µM (inactive) throughout.
Take `Cc1c(C(=O)/C=C/c2c(Cl)cccc2Cl)c(=O)n(-c2ccccc2)n1C`: the GI50 in assay [1] is 25.8 µM (inactive); in [2] it was 31.8 µM (inactive); in [3], 26 µM (inactive); in assay [4] it was 12.8 µM (inactive); in assay [5], 11.8 µM (inactive); in assay [6], 24.4 µM (inactive). In addition, the GI50 was 13.9 µM (inactive) in assay [7]; 24.1 µM (inactive) in assay [8]; 43 µM (inactive) in assay [9]; 7 µM (inactive) in assay [10]; 2.74 µM (inactive) in [12]; 22.7 µM (inactive) in assay [13]. In addition, the GI50 in [14] was 19.1 µM (inactive); in assay [15], 71.8 µM (inactive); in assay [16] it was 19 µM (inactive).
In the case of `COC(=O)Cc1cc(=O)oc2c1C(=O)CCC2`, the GI50 is > 100 µM (inactive) in assay [1]; 59.2 µM (inactive) in assay [2]; > 100 µM (inactive) in [3]; > 100 µM (inactive) in assay [4]; > 100 µM (inactive) in [5]; > 100 µM (inactive) in assay [6]. In addition, the GI50 in assay [7], in assay [8], in [9], in assay [10], in assay [11] and in [12] was > 100 µM (inactive) in each case. For the same compound, the GI50 in assay [13], in assay [14], in assay [15] and in assay [16] was > 100 µM (inactive) each time.
Regarding `C[S+](C)CCOC(=O)C(=[N+]=[N-])c1ccc([N+](=O)[O-])cc1`, the GI50 in assay [1], in [2], in assay [3], in [4], in assay [6] and in assay [7] was > 100 µM (inactive) throughout. The GI50 in assay [8], in [9], in assay [10], in [11], in assay [12] and in assay [13] was > 100 µM (inactive) throughout. The GI50 in [14], in [15] and in assay [16] was > 100 µM (inactive) in each case.
As for `C=CNC(=O)NC(=O)CSc1nc(=O)c(-c2ccccc2NC(=O)C(F)(F)F)n[nH]1`, the GI50 in assay [2] is > 100 µM (inactive); in [3], 50 µM (inactive); in assay [4], 51.6 µM (inactive); in assay [5] it was > 100 µM (inactive); in assay [6], > 100 µM (inactive); in assay [7] it was 47.5 µM (inactive). Besides, the GI50 is 37.4 µM (inactive) in [8]; 47.6 µM (inactive) in [9]; > 100 µM (inactive) in assay [10]; > 100 µM (inactive) in assay [11]; > 100 µM (inactive) in assay [12]; 21.1 µM (inactive) in [13]. Moreover, the GI50 in [14] was 38.3 µM (inactive); in [15], > 100 µM (inactive); in assay [16], > 100 µM (inactive).
In the case of `Cc1ccc2c(C)c3ccc4ccccc4c3c[n+]2c1.[O-][Cl+3]([O-])([O-])[O-]`, the GI50 in assay [1] is 58.7 µM (inactive); in assay [2], 33.6 µM (inactive); in assay [3] it was 23.1 µM (inactive); in [4], 11.2 µM (inactive); in assay [5] it was 34.6 µM (inactive); in assay [6], 4.68 µM (inactive). Besides, the GI50 was 12.2 µM (inactive) in [7]; 2.57 µM (inactive) in [8]; 17.7 µM (inactive) in assay [9]; 10.1 µM (inactive) in [10]; 56.5 µM (inactive) in assay [11]; 11.1 µM (inactive) in assay [12]. Also, the GI50 is 10.6 µM (inactive) in [13], 7.35 µM (inactive) in [14], 51.3 µM (inactive) in assay [15] and 23.9 µM (inactive) in assay [16].
As for `CC(C)(C)c1cc(C(P(=O)(O)O)P(=O)(O)O)cc(C(C)(C)C)c1O`, the GI50 in assay [1], in assay [2], in [3], in [4], in assay [5] and in assay [8] was > 100 µM (inactive) in each case. Further, the GI50 in assay [9], in assay [10], in assay [11], in assay [12], in assay [13] and in assay [14] was > 100 µM (inactive) throughout. Besides, the GI50 in assay [15] and in assay [16] was > 100 µM (inactive) throughout.
Take `CCOC(=O)c1nc2ccc(Cl)cc2c2c1CCO2`: the GI50 in assay [1] is 55 µM (inactive); in assay [3], > 100 µM (inactive); in assay [4], 34.7 µM (inactive); in [5], 59.6 µM (inactive); in assay [6], 82 µM (inactive); in assay [7], > 100 µM (inactive). For the same compound, the GI50 in assay [8] was 90.8 µM (inactive); in assay [9], 76 µM (inactive); in assay [10], > 100 µM (inactive); in assay [11] it was 91.2 µM (inactive); in assay [12], 79.4 µM (inactive); in [13] it was 64.3 µM (inactive). Further, the GI50 in [14] was > 100 µM (inactive); in assay [15] it was > 100 µM (inactive); in [16], 51.8 µM (inactive).
`COC1OC(C)C(O)CC1OS(=O)(=O)c1ccc(C)cc1` (stereo unspecified): the GI50 in assay [1], in assay [2], in assay [3], in assay [4], in [5] and in [6] was > 100 µM (inactive) throughout. Also, the GI50 in [7], in assay [8], in assay [9], in assay [10], in assay [11] and in [12] was > 100 µM (inactive) throughout. Moreover, the GI50 in assay [13], in assay [14], in assay [15] and in [16] was > 100 µM (inactive) each time.
Consider `CC1=C(C(=O)Nc2cccc(C(F)(F)F)c2)C(c2ccc(O)cc2)C(C(=O)Nc2cccc(C(F)(F)F)c2)=C(C)N1`, for which the GI50 in [1] is 20.3 µM (inactive); in assay [2], 12.7 µM (inactive); in assay [3], 20.5 µM (inactive); in assay [4], 15.5 µM (inactive); in assay [5], 15.6 µM (inactive); in assay [6], > 10 µM (inactive). In addition, the GI50 in assay [7] is 13.9 µM (inactive); in assay [8] it was 26.5 µM (inactive); in [9], 19.1 µM (inactive); in [10], 19.4 µM (inactive); in [11], 15 µM (inactive); in assay [12], 13.6 µM (inactive). In addition, the GI50 in assay [13] is 14.8 µM (inactive); in [14], 15.7 µM (inactive); in [15], 24.9 µM (inactive); in assay [16], 11.6 µM (inactive).
For `O=C(c1ccc(Cl)cc1)N(C(=S)N1CCN(c2ccccn2)CC1)C1CCCCC1`, the GI50 was 43.6 µM (inactive) in assay [1]; 48.3 µM (inactive) in assay [2]; 74.1 µM (inactive) in assay [3]; 38.6 µM (inactive) in assay [4]; 56.1 µM (inactive) in assay [5]; > 100 µM (inactive) in assay [6]. The GI50 in assay [7] is 44.4 µM (inactive); in [8], 27.3 µM (inactive); in assay [9], > 100 µM (inactive); in [10] it was 83.6 µM (inactive); in assay [11], 37.6 µM (inactive); in assay [12], 48.5 µM (inactive). Besides, the GI50 is 34.9 µM (inactive) in assay [13], 45.9 µM (inactive) in assay [14], > 100 µM (inactive) in assay [15] and > 100 µM (inactive) in [16].
Consider `N#Cc1ccc(/C=N/C23CC4CC(CC(C4)C2)C3)cc1`, for which the GI50 in assay [1] was > 100 µM (inactive); in assay [2] it was > 100 µM (inactive); in [3] it was > 100 µM (inactive); in assay [4] it was > 100 µM (inactive); in assay [5], 76.6 µM (inactive); in assay [6] it was > 100 µM (inactive). Besides, the GI50 in assay [7] is > 100 µM (inactive); in [8], > 100 µM (inactive); in assay [9], > 100 µM (inactive); in [10], > 100 µM (inactive); in [11], 39.5 µM (inactive); in assay [12], 96.8 µM (inactive). For the same compound, the GI50 is 56 µM (inactive) in assay [13], > 100 µM (inactive) in assay [14], > 100 µM (inactive) in [15] and > 100 µM (inactive) in assay [16].
